From patent publication US20040023924A1, “Use of xyloglucan polymers and oligomers, and derivative compounds, as phytosanitary products and biofertilizers” (priority 2000, published 2004)

Legend:
Assay type in all cases: cell-based, Acer pseudoplatanus L.
glycosylhydrolases = assay: Effect of effectors on the glycosylhydrolase elicitation responses; conditions: okadaic acid 5 nM, boroglycine 500 nM; for Early glycosylhydrolase elicitation responses in the presence of the effector: cycloheximide 1 μM, modulation with the exception of 1,3 β-D-glucanase activity
Procedure: (§1) Test: 2.10^6 Acer pseudoplatanus L. cells were elicited under circular stirring (80 rpm), in 25 ml of culture medium (without 2,4-D) by 50 nM of 2′-fucosyl lactose (compound A) or 50 nM of methyl α-L-Fuc (1→2) β-D-Gal (1→2) β-D-Xyl trisaccharide (compound B)(synthesized according to Lopez et al., 1994) or for a variable time (0 to 42 hours) in the presence or not in the presence of an effector: cycloheximide (1 μM), okadaic acid (5 nM), staurosporine (500 nM), or boroglycine (500 nM). The elicitation experiment is stopped by putting the cells in ice. The cells recovered after decantation and taken up in approximately 1 ml of elicitation buffer are the subject of a specific protein extraction.
(§2) D-glycosylhydrolase extraction. The enzyme extracts are prepared from elicited or non-elicited cells. The cells are homogenized at 0° C. in Tris-HCl buffer (50 mM pH 7.2) containing 1 M of NaCl with a Vibracell™ Bioblock sonicator, maximum power, for 3 times 1 minute. The homogenates are centrifuged at 4° C. (12000 g, 15 minutes) then dialysed and concentrated on Ultrafree™ Millipore ultrafiltration units (cut-off threshold 10 kDa). The retentates, taken up in distilled water, are crude extracts.
(§3) Evaluation of the experimental data. At least 2 kinetics were carried out per sample, and per set of experiments. The reaction rate (ΔA410 minutes^−1 for example) is obtained by linear regression from 4 kinetic curves. The results are expressed by the ratio R (enzymatic activity in elicited cells/enzymatic activity in non-elicited control cells).

[1] = system: 1,4 β-D-glucanase (EC 3.2.1.4); assay: Induction of a 1,4 β-D-glucanase response in elicited cells; conditions: elicited cells; cycloheximide (1 μM); late response
Procedure: (§4) Vegetable material: Acer pseudoplatanus L Cells in Suspension
as §1, §2
1,4 β-D-glucanase activity assay. This is based on colorimetric assay (ferricyanide test of Kidby and Davidson (1973) of the cellopentaose substrate reducing units released during the hydrolysis. The reaction medium contains the enzyme extract (1 μg of proteins), reduced cellopentaose (4 μM) in 100 μl of sodium acetate buffer (0.1 M), pH 5.0); the enzymatic reaction at 40° C. develops over a variable time (1 to 3 hours).
as §3

[2] = system: 1,3 β-D-glucanase (EC 3.2.1.39); assay: Induction of a 1,3 β-D-glucanase response in elicited cells; conditions: elicited cells; cycloheximide (1 μM); late response
Procedure: as §4, §1, §2
1,3 β-D-glucanase activity assay. This is based on colorimetric assay (ferricyanide test of Kidby and Davidson (1973) of the substrate reducing units (laminarin or laminarin hexamer) released during the hydrolysis. The reaction medium contains the enzyme extract (1 μg of proteins), the substrate (5 μM of reduced laminarin hexamer) in 100 μl of sodium acetate buffer (0.1 M), pH 5.0); the enzymatic reaction at 40° C. develops over a variable time (1 to 3 hours).
as §3

[3] = system: Phospholipase D (E.C: 3.1.4.4); assay: Elicitation of phospholipase D activity (NBD-PE fluorescence); conditions: methyl jasmonate 0 to 5 nM; 2′-fucosyl lactose 1 nM; dose-dependent
Text: Vegetable material: Acer pseudoplatanus L. cells in Suspension
Phospholipase D (E.C: 3.1.4.4) (Plase D) activity: this is a phosphatidylcholine phosphatidohydrolase which releases the O-R3 group, according to the diagram below. To the extent that O-R3 is marked (a fluorochrome for example), quantifying this group is equivalent to assaying Plase D activity. For the experiments the substrate used is phosphatidylcholine conjugated to a fluorochrome, i.e. the product nitrobenzoxadiazole phosphoethanolamine (NBD-PE). The retained excitation and emission wavelengths of the fluorochrome are 460 nm and 534 nm respectively. [drawing 5]
Principle: assaying Plase D activity is equivalent to estimating the fluorescence variation at 534 nm of a reaction medium with a spectrofluorimeter (Perkin Elmer).
Test: the reaction medium in a microtitration plate well is as follows: 1.3 10^7 Acer pseudoplatanus L. cells are incubated in a 50 mM HEPES buffer, pH 6.8 enriched with CaCl2 (1 μM), ATP (2 μM), octyl-D-glucoside 50 μM, GTP (6 μM) in the presence of the NBD-PE substrate (4 μM), in the presence or absence of an elicitor (0-100 nM): 2′-fucosyl-lactose (FL), compound A; XXFGol, compound B, in the presence or not in the presence of a methyl jasmonate effector (0-5 nM). The Plase D activity assay is carried out by measuring the fluorescence at 534 nm.
Evaluation of the experimental data. For each sample at least three kinetics are recorded; the Plase D activity is given by the slope of the regression curve. The results are expressed by Δ F534 min^−1. One point on the graph corresponds to the linear regression treatment of at least 2 kinetic curves originating from 2 different samples.
The Plase D elicitation response is evaluated according to the fluorescence variation at […]; the 100% reference value corresponds to the fluorescence in the controls (non-elicited cells)

For C[C@@H]1C[C@@H]([C@H](O)CC2CC(=O)NC(=O)C2)C(=O)[C@@H](C)C1 [cycloheximide, reference compound], the “Early glycosylhydrolase elicitation responses in the presence of the effector” value (glycosylhydrolases) was “maintained”, the “1,4 β-D-glucanase late response R in the presence of cycloheximide” value [1] was roughly 2 and the “1,3 β-D-glucanase late response R in the presence of cycloheximide” value [2] was roughly 3.
In the case of CC/C=C\CC1C(=O)CCC1CC(=O)OC (centres unmarked) [methyl jasmonate, reference compound], the “Plase D elicitation: methyl jasmonate versus 2′-fucosyl lactose” value [3] is reported as “antagonistic”.
With C=C1[C@@H](O)[C@@H]2O[C@]3(CC[C@H](/C=C/[C@@H](C)[C@@H]4CC(C)=C[C@@]5(O[C@H](C[C@@](C)(O)C(=O)O)CC[C@H]5O)O4)O3)CC[C@H]2O[C@@H]1[C@@H](O)C[C@H](C)[C@H]1O[C@@]2(CCCCO2)CC[C@H]1C [okadaic acid] the “Early glycosylhydrolase elicitation responses in the presence of the effector” value (glycosylhydrolases) was “modulated” and the “Late glycosylhydrolase elicitation responses in the presence of the effector” value (glycosylhydrolases) was “not affected”.
For boroglycine, the “Early glycosylhydrolase elicitation responses in the presence of the effector” value (glycosylhydrolases) was “modulated” and the “Late glycosylhydrolase elicitation responses in the presence of the effector” value (glycosylhydrolases) was “not affected”.
